The source of these data is patent US11660319B2, “Compositions comprising bacterial strains” (priority 2017, dated 2023).

Assay [1] relates to SH-SY5Y neuroblastoma cells. Description: Neuroprotection / cell viability of neuroblastoma cells treated with MPP (CCK-8). The class given is cell-based, human. The note with it: for protection compared to YCFA-MPP+ treated sample: RA-differentiated SHSY-5Y cells treated with MPP+.
Description: Once grown the SH-SY5Y neuroblastoma cells were plated on 96-well plate at 11,000 cells/well and incubated for 2 days. The cells were then transferred to differentiation medium (which contains FBS at 1%) and 10 uM retinoic acid (Sigma Aldrich, cat. n. R2625-100MG). Differentiation medium was replaced every other day and cells were harvested at 7 day of differentiation. Cells were pre-treated with or without MPP (Sigma Aldrich, cat. n. D048-1G) for 8 hours. Subsequently, cells were treated with 10% bacterial supernatant and incubated overnight. Cell viability was measured by using CCK-8 reagent (Sigma Aldrich, Cell Counting Kit-8, cat. n. 96992-3000TESTS-F) and read at 450 nm wavelength.
Another assay relates to HDAC. Description: HDAC inhibition on whole HT-29 cells and HT-29 cell lysate. Format: cell-based. The conditions noted are these: for total HDAC activity, pure substances: HT-29, whole cells or lysate not told apart in the sentence. The method, then:
Bacterial culture and cell-free supernatant collection Pure cultures of bacteria were grown anaerobically in YCFA broth until they reached their stationary growth phase. Cultures were centrifuged at 5,000×g for 5 minutes and the cell-free supernatant (CFS) was filtered using a 0.2 μM filter (Millipore, UK). 1 mL aliquots of the CFS were stored at −80° C. until use. Sodium butyrate, hexanoic and valeric acid were obtained from Sigma Aldrich (UK) and suspensions were prepared in YCFA broth.
To investigate which metabolites were responsible for the strain-induced HDAC inhibition, different concentrations of hexanoic acid, valeric acid and sodium butyrate were measured for their HDAC inhibition on whole HT-29 cells and on HT-29 cell lysate.

For a further assay, the system named is SHSY5Y. The assay can be described thus: Neurite outgrowth: microscopy and MAP2 gene expression (qPCR). Format: cell-based, human. The note with it: for neurite outgrowth / neuron-like phenotype: undifferentiated SHSY-5Y cells, 10% bacteria supernatant, 200 uM hexanoic acid or 200 uM valproic acid, 17 hrs. The method, then:
SHSY5Y were plated in 10 cm petri dishes a density of 2×10^6 cells. After 24 h cells were treated in differentiation medium (growth medium containing 1% FBS without RA) with 10% bacteria supernatants or YCFA+, 10 uM RA, 200 uM hexanoic acid or 200 uM valproic acid, for 17 hrs. There after representative images were taken using phase contrast EVOS XL core microscope at 40×/0.65 magnification. Cells were collected, and total RNA was isolated according to RNeasy mini kit protocol (Qiagen). cDNAs were made using the high capacity cDNA reverse transcription kit (Applied Biosystems). Gene expression was measured using qPCR. GAPDH was used as internal control. Fold change was calculated according to the 2^(−ΔΔct) method.
Cells were seeded onto 8 well chamber slides (Marienfeld Laboratory Glassware) at 5×10^4 cells/well overnight and were treated with 10% bacterial supernatant for 24 hrs. For differentiation, cells were treated with 10 nM Retinoic acid for 5 days before treating with bacterial supernatant. Cells were then fixed with 4% paraformaldehyde in PBS for 20 minutes at room temperature (RT). Fixed cells were washed with PBS, and permeabilized with 1% Triton X-100 in PBS for 10 minutes. After washing with PBS, the slides were incubated with blocking buffer (4% BSA/PBS) for 1 hr at RT before adding anti-MAP2 antibody (sc-74421, Santa Cruz Biotechnology Inc) diluted in 1% BSA/PBS for 12 hr at 4° C. They were then washed twice with PBS, followed by incubation with Alexa Flour 488 conjugated anti-mouse (Molecular Probes Inc) and Alexa Flour 594 conjugated Phalloidin (ab 176757, Abcam) for 1 hr at RT. After washing 3× with PBS, the slides were mounted with Vectorshield[…] containing DAPI (Sigma, Aldrich). Slides were viewed using a Zeiss Axioscope microscope equipped with a 63×/1.2 W Korr objective and filter sets suitable for detection of the fluorochromes used. Manual exposure times for the digital acquisition of images immuno-labelled with MAP-2 were kept constant allowing comparison between different wells and treatments. Phalloidin (F-actin) and DAPI exposure times varied to suit the field of view. Randomised fields of view were acquired using a QImaging camera controlled by Image Pro Plus software. Images were saved as TIFs and opened in Adobe Photoshop CC 2015.1.2 and overlays of the MAP-2, DAPI and Phalloidion images overlaid and merged. Representative images were selected to illustrate the differences in abundance and location of the proteins examined
In general terms: In qPCR the cycle at which signal appears reflects the starting amount.

Assay [2] concerns BALBc mice. Description: Ex vivo gene expression in colon and ileum of mice fed with bacteria. Also on record: species or system mouse. The method, then:
Animals were allowed to habituate to their holding room for one week after arrival into the animal unit. They receive oral gavage (200 μL dose) of live biotherapeutics at a dose of 1×10^9 CFU for 6 consecutive days between 15:00 and 17:00. On day 7, the animals are decapitated, and tissues are harvested for experimentation. The in vitro results were compared with data from the ex vivo parallel analysis on the gut of mice fed with […] expression of TJP2 and occludin was quantified in the colon and ileum. […] Total RNA was extracted using the mirVanaTM miRNA Isolation kit (Ambion/Llife technologies, Paisley, UK) and DNase treated (Turbo DNA-free, Ambion/life technologies) according to the manufacturers recommendations. RNA was quantified using NanoDropTM spectrophotometer (Thermo Fisher Scientific Inc., Wilmington, Del., USA) according to the manufacturer's instructions. RNA quality was assessed using the Agilent Bioanalyzer (Agilent, Stockport, UK) according to the manufacturer's procedure and an RNA integrity number (RIN) was calculated. […] RNA was reverse transcribed to cDNA using the Applied Biosystems High Capacity cDNA kit (Applied Biosystems, Warrington, UK) according to manufacturer's instructions. Briefly, Multiscribe Reverse Transcriptase (50 U/μL) (1)(2)(1)(10) was added as part of RT master mix, incubated for 25° C. for 10 min, 37° C. for 2 h, 85° C. for 5 min and stored at 4° C. Quantitative PCR was carried out using probes (6 carboxy fluorescein-FAM) designed by Applied Biosystems to mouse specific targeted genes, while using β-actin as an endogenous control. Amplification reactions contained 1 μl cDNA, 5 μl of the 2× PCR Master mix (Roche), 900 nM of each primer and were brought to a total of 10 μl by the addition of RNase-free water. All reactions were performed in triplicate using 96-well plates on the LightCycler®480 System. Thermal cycling conditions were as recommended by the manufacturer (Roche) for 55 cycles. To check for amplicon contamination, each run contained no template controls in triplicate for each probe used. Cycle threshold (Ct) values were recorded. Data was normalized using β-actin and transformed using the 2-ΔΔCT method and presented as a fold change vs. control group.

Assay [3] relates to BALBc mice. Description: Monoamine analysis in brainstem of mice fed with bacteria (HPLC). The note with it: 1×10^9 CFU oral gavage 6 days. Format: in vivo, mouse.
Description: Neurotransmitter concentration was analysed by HPLC on samples from the brainstem. Briefly, brainstem tissue was sonicated in 500 μl of chilled mobile phase spiked with 4 ng/40 μl of N-Methyl 5-HT (Sigma Chemical Co., UK) as internal standard. The mobile phase contained 0.1 M citric acid, 5.6 mM octane-1-sulphonic acid (Sigma), 0.1 M sodium dihydrogen phosphate, 0.01 mM EDTA (Alkem/Reagecon, Cork) and 9% (v/v) methanol (Alkem/Reagecon) and was adjusted to pH 2.8 using 4 N sodium hydroxide (Alkem/Reagecon). Homogenates were then centrifuged for 15 min at 22,000×g at 4° C. and 40 μl of the supernatant injected onto the HPLC system which consisted of a SCL 10-Avp system controller, LECD 6A electrochemical detector (Shimadzu), a LC-10AS pump, a CTO-10A oven, a SIL-10A autoinjector (with sample cooler maintained at 40 C) and an online Gastorr Degasser (ISS, UK). A reverse-phase column (Kinetex 2.6 u C18 100×4.6 mm, Phenomenex) maintained at 30° C. was employed in the separation (Flow rate 0.9 ml/min). The glassy carbon working electrode combined with an Ag/AgCl reference electrode (Shimdazu) operated a +0.8 V and the chromatograms generated were analyzed using Class-VP 5 software (Shimadzu). The neurotransmitters were identified by their characteristic retention times as determined by standard injections, which run at regular intervals during the sample analysis. The ratios of peak heights of analyte versus internal standard were measured and compared with standard injection. Results were expressed as ng of neurotransmitter per g fresh weight of tissue.
The subject of assay [4] is HT29-mtx epithelial, mucin-producing cell monolayers. Description: IL-8 secretion of HT29-mtx monolayers. The conditions noted are these: bacterial supernatants 24 h; compared to untreated and YCFA-treated cells. The class given is cell-based. The source says:
HT29-mtx epithelial, mucin-producing cell monolayers were used as an in vitro model to evaluate gut barrier disruption and immune stimulation following treatment with MRx0005 and MRx0029.

For the next assay, the system named is mouse Splenocytes. Description: Spleen cytokine assay ex vivo (LPS or ConA stimulation). The class given is in vivo. The method, then:
Spleens were collected immediately in 5 mL RPMI media following sacrifice and cultured immediately. Spleen cells were first homogenised in this RPMI media, followed by 5 mins incubation with 1 ml of RBC lysis buffer (11814389001 ROCHE, Sigma). A further 10 ml of RPMI media was added, followed by 200G centrifugation for 5 mins. The supernatant was then filtered through 40 um strainer. Cells were counted and seeded (4,000,000/mL media). After 2.5 h of adaptation, cells were stimulated with lipopolysaccharide (LPS-2 μg/ml) or concanavalin A (ConA-2.5 μg/ml) for 24 h. Following stimulation, the supernatants were harvested to assess the cytokine release using Proinflammatory Panel 1 (mouse) V-PLEX Kit (Meso Scale Discovery, Maryland, USA) for TNFα, IL-10, IL-1β, Interferon γ, CXCL2 and IL6. The analyses were performed using MESO QuickPlex SQ 120, SECTOR Imager 2400, SECTOR Imager 6000, SECTOR S 600.
The ex-vivo splenocyte assay involves challenging the splenocytes (cells isolated from the spleen—a main organ involved in immune defense), with a bacterio- or viral-mimetic challenge.

The subject of assay [5] is BALBc mice. Description: Gene expression in hippocampus, amygdala and prefrontal cortex (qPCR). The class given is in vivo, mouse. The method, then:
Animals were allowed to habituate to their holding room for one week after arrival into the animal unit. They receive oral gavage (200 μL dose) of live biotherapeutics at a dose of 1×10^9 CFU for 6 consecutive days between 15:00 and 17:00. On day 7, the animals are decapitated, and tissues are harvested for experimentation.
Total RNA was extracted using the mirVana™ miRNA Isolation kit (Ambion/Llife technologies, Paisley, UK) and DNase treated (Turbo DNA-free, Ambion/life technologies) according to the manufacturers recommendations. RNA was quantified using NanoDrop™ spectrophotometer (Thermo Fisher Scientific Inc., Wilmington, Del., USA) according to the manufacturer's instructions. RNA quality was assessed using the Agilent Bioanalyzer (Agilent, Stockport, UK) according to the manufacturer's procedure and an RNA integrity number (RIN) was calculated. RNA with RIN value >7 was used for subsequent experiments. RNA was reverse transcribed to cDNA using the Applied Biosystems High Capacity cDNA kit (Applied Biosystems, Warrington, UK) according to manufacturer's instructions. Briefly, Multiscribe Reverse Transcriptase (50 U/μL) (1)(2)(1)(10) was added as part of RT master mix, incubated for 25° C. for 10 min, 37° C. for 2 h, 85° C. for 5 min and stored at 4° C. Quantitative PCR was carried out using probes (6 carboxy fluorescein-FAM) designed by Applied Biosystems to mouse specific targeted genes, while using β-actin as an endogenous control. Amplification reactions contained 1 μl cDNA, 5 μl of the 2× PCR Master mix (Roche), 900 nM of each primer and were brought to a total of 10 μl by the addition of RNase-free water. All reactions were performed in triplicate using 96-well plates on the LightCycler®480 System. Thermal cycling conditions were as recommended by the manufacturer (Roche) for 55 cycles. To check for amplicon contamination, each run contained no template controls in triplicate for each probe used. Cycle threshold (Ct) values were recorded. Data was normalized using β-actin and transformed using the 2-ΔΔCT method and presented as a fold change vs. control group.
Expression of genes for neurotransmitter receptors [serotonin receptor 1a(5-HTR1a), dopamine D1 receptor, GABA receptor subunit B1, GABAA receptor, NMDA2A (Grin2A) and NMDA2B (Grin2b) receptor], inflammatory markers [IL-1β, IL6, CD11b, TNFα and TLR4], and endocrine markers [corticosterone releasing factor (CRF), corticosterone releasing factor receptors 1 and 2 (CRFR1, CRFR2), brain-derived neurotrophin factor (BDNF), vasopressin receptor, oxytocin receptor, glucocorticoid receptor and mineralocorticoid receptor] were analysed in brain tissue from the hippocampus, amygdala and prefrontal cortex.

Assay [6] relates to HT29-mtx epithelial, mucin-producing cell monolayers. Description: mRNA expression of tight junction proteins in HT29-mtx (qRT-PCR). Format: cell-based. The method, then:
Total RNA was extracted using the RNeasy mini kit (Qiagen, Manchester, JUK) according to the manufacturer's instructions, and the RNA concentration determined by absorbance at 260/280 nm using a spectrophotometer (nano-Drop ND-1000; Thermo Scientific, Wilmington, Del.). For mRNA expression analysis, cDNA was prepared from total RNA using the High-Capacity cDNA reverse transcription kit (Applied Biosystems, UK) according to the manufacturer's instructions. The reverse transcription reactions were performed in a Thermo cycler (Biometra, Germany) at 25° C. for 10 min, 37° C. for 120 min, and 85° C. for 5 min, hold on at 4° C. Resulting cDNA was amplified in duplicates by the SYBR-Green PCR assay, and products were detected on QuantStudio 6 flex real-time PCR machine (Applied Biosystems, UK) using a standardised profile (initial denaturation of 95° C. for 10 minutes, followed by 40 cycles of 15 seconds of denaturation at 95° C. and 60 seconds of annealing/extension at 60/65° C., depending on the primers. A dissociation stage was added after the 40 cycles to generate a melting curve. Analysis was performed using the Applied Biosystems QuantStudio Real-Time PCR Software v1.2. The primer sequences for Actin, Villin, Occludin TJP1 and TJP2 are provided in the sequence listing.

`O=c1c(O)c(-c2ccc(O)c(O)c2)oc2cc(O)cc(O)c12` [quercetin, reference compound]: the “protection compared to YCFA-MPP+ treated sample” value in assay [1] is reported as “about the same”.
For `CCCC(=O)[O-].[Na+]` [sodium butyrate, reference compound], in the assay on HDAC, the “total HDAC activity, pure substances” value is reported as “significant HDAC inhibition”. The “HDAC inhibition, HT29 cell lysate” value in the assay with HDAC (HT-29 cell lysate) is “significant (P<0.05) inhibition”. The “HDAC inhibition, HT29 whole cell” value in the assay on HDAC (whole HT-29 cells) was “significant (P<0.05) inhibition”.
Regarding `CCCCCC(=O)O` [hexanoic acid], the “total HDAC activity, pure substances” value with HDAC is listed as “did not show significant inhibitory activity”. Further, the “neurite outgrowth / neuron-like phenotype” value in the assay on SHSY5Y is “enhance neurite outgrowth”.
As to Parabacteroides distasonis [MRx0005], in the assay on BALBc mice [2] (colon), the IDO-1 expression entry is recorded as “increase”. Moreover, in the assay with BALBc mice [2] (ileum), the “expression of IDO1” value was “increased” and the “expression of Tph1” value is recorded as “increased”. The dopamine in brain entry in the assay with BALBc mice [3] was “decrease”. The “secretion of IL-8” value in [4] was “even lower secretion”. Besides, in the assay on mouse Splenocytes (challenge with LPS), the interleukin-6 in splenocytes entry was “reduced”, the “levels of interferon-γ in splenocytes” value is on record as “significantly reduced” and the “tumour necrosis factor in splenocytes” value is recorded as “reduced”. Moreover, in the assay on mouse Splenocytes (splenocytes), the “levels of the chemoattractant CXCL1” value is “increase”. Besides, the proliferation of neurons result in assay [1] (10% bacterial supernatant, without MPP) is reported as “increase”. Also, the “protection compared to YCFA-MPP+ treated sample” value in [1] is “about 20%”. Further, in assay [1] (RA-differentiated SHSY-5Y cells, per se (no MPP+)), the mitochondria metabolic activity entry was “increase”. Besides, in the assay with BALBc mice [5] (amygdala), the “expression of BDNF” value is “significantly increased”, the “expression of CD11b” value is “increase”, the “expression of GABBR1” value is given as “increased” and the “expression of GABRA2” value is “significantly increased”. Further, in the assay with BALBc mice [5] (amygdala), the “expression of Grin2a” value is recorded as “reduced”, the “expression of Grin2b” value is recorded as “reduced” and the “expression of IL-6” value is “reduced”. Also, the “expression of BDNF” value in the assay on BALBc mice [5] (prefrontal cortex) was “significant increase”. The “gene expression of tight junction proteins” value in assay [6] is “did not alter”.
As for `CCCC(CCC)C(=O)O` [valproic acid, reference compound], in the assay on SHSY5Y, the “neurite outgrowth / neuron-like phenotype” value is given as “increases neurite outgrowth”. Besides, the MAP2 expression result with SHSY5Y (undifferentiated neuroblastoma cells, qPCR, GAPDH internal control) is recorded as “increase”.
